The target in the assay is T1, Human CaV2.2 channels (Homo sapiens, UniProt Q00975).
T1 construct: expressed in transfected cells
Briefly: Fluorescent assay for CaV2.2 channels using potassium depolarization to induce channel opening (FLIPR, Fluo-4). The note with it: 3 μM test compound, 30 mM KCl, HEK293 cells stably expressing human CaV2.2; read-out: %-Inhib (CaV2.2) @3 μM @30 mM KCl. Format: cell-based. In outline:
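Channel block was read as the baseline-normalized peak Ca²⁺ signal (Fluo-4, 480/535 nm) after a high-KCl depolarizing addition (210 mM KCl buffer). Beforehand, compound sat 15 min at 25 °C on HEK293 cells carrying human CaV2.2, α2δ/β subunits and Kir2.3, in pH 7.4 buffer with 30 mM KCl.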

T1 sequence (Q00975 whole entry): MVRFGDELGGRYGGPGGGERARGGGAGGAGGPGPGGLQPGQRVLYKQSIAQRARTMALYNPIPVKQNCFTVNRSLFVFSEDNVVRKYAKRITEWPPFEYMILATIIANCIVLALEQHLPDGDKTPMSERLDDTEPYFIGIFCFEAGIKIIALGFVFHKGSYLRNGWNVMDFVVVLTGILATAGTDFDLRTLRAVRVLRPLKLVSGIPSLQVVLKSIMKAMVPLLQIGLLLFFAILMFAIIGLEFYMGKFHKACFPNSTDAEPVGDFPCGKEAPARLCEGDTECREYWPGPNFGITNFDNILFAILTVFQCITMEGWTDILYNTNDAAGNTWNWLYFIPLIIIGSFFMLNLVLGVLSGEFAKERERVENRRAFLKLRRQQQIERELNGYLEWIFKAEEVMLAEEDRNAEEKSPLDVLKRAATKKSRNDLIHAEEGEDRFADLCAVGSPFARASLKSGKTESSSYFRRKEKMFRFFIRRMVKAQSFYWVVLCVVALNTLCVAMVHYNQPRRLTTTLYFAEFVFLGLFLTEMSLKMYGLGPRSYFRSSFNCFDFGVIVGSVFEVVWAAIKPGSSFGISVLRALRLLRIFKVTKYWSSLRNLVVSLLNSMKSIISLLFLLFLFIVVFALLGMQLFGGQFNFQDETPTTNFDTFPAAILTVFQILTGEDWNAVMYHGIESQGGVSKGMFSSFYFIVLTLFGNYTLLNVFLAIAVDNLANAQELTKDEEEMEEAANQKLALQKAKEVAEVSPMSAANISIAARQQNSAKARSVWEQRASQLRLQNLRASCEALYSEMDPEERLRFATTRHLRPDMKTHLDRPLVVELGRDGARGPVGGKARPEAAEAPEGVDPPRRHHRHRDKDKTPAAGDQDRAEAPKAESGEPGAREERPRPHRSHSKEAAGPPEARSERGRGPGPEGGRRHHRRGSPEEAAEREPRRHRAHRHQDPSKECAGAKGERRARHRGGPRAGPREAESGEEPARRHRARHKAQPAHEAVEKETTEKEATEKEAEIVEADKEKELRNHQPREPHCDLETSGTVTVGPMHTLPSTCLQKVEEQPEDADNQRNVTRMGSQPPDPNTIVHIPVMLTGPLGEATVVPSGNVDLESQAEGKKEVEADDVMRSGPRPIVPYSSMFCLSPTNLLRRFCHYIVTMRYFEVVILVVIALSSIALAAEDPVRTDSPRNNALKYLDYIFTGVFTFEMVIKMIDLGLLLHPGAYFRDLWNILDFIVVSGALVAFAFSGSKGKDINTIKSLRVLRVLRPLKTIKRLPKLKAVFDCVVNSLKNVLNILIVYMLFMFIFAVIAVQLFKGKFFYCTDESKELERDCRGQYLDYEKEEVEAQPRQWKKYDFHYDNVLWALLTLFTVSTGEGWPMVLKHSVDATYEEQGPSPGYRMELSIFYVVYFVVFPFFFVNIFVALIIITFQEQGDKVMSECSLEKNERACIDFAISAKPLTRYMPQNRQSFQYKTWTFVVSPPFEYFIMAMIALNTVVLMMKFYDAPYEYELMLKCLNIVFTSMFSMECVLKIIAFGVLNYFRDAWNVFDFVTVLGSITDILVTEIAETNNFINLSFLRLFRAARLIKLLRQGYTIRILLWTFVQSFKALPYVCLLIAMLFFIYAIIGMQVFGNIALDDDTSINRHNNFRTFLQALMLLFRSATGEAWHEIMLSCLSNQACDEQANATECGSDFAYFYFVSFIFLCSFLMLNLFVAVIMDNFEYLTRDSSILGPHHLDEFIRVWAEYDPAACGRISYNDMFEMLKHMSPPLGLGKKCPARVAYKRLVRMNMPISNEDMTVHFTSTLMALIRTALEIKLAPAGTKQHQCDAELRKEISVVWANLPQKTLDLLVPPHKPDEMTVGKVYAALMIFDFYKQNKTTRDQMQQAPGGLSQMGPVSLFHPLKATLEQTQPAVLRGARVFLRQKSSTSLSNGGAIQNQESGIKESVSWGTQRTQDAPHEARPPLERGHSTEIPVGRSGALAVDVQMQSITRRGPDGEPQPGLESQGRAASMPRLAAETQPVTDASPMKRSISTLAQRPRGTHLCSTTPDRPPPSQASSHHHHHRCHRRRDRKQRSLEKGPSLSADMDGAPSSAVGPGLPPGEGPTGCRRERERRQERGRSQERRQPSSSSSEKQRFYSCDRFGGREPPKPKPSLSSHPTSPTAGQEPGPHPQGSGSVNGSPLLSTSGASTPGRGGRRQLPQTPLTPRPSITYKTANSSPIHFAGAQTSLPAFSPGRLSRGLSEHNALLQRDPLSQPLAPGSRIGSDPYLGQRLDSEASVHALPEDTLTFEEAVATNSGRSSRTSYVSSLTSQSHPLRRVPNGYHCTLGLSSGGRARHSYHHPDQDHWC
T1 sequence (P54289 25-1103, further chain): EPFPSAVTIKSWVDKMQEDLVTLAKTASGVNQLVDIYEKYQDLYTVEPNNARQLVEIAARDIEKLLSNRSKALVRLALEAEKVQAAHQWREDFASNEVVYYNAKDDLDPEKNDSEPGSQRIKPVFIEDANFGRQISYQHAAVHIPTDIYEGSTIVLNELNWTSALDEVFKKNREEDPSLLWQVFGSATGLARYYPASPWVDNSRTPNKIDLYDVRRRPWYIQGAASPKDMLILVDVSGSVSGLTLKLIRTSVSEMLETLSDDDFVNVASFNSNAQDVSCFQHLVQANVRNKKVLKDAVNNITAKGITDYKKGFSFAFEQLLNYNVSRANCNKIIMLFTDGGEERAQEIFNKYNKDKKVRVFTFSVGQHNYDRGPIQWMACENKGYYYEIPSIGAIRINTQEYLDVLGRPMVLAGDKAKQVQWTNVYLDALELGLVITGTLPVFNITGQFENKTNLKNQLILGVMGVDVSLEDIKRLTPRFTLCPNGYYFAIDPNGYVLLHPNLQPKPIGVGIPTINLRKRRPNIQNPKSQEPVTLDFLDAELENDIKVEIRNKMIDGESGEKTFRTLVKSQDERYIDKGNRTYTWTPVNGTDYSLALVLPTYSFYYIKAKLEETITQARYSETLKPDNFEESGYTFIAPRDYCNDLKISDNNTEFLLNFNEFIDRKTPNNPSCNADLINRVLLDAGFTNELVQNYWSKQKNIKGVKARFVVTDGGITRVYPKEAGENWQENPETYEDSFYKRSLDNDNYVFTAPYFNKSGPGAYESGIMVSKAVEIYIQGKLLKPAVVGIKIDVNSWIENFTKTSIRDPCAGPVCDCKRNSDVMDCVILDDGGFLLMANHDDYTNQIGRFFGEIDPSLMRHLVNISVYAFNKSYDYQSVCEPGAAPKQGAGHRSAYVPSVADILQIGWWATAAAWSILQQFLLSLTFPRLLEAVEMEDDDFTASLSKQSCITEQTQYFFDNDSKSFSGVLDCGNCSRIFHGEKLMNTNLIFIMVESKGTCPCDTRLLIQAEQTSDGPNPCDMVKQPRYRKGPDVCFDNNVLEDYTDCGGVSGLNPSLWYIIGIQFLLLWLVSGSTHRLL
T1 sequence (P54284 whole entry, further chain): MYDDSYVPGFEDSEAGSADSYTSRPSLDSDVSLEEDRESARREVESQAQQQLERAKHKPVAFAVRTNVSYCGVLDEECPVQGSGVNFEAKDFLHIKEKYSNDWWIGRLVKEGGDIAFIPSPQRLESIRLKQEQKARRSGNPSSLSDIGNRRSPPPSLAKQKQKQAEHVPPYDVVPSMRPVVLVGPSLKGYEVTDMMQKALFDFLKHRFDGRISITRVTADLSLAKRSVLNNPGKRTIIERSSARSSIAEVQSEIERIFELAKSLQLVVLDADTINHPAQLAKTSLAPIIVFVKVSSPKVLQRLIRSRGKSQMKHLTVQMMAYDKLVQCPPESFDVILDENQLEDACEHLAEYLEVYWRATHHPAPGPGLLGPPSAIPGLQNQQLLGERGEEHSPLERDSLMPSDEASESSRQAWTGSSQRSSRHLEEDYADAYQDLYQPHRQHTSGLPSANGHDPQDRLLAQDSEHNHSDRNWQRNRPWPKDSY

Turning to `Cc1c(-c2ccc(Cl)c(F)c2)c(C(=O)N2CC(O)C2)n(Cc2ccccc2)c1C(F)(F)F` [SC-247, [1-Benzyl-3-(4-chloro-3-fluoro-phenyl)-4-methyl-5-(trifluoromethyl)-1H-pyrrol-2-yl]-(3-hydroxy-azetidin-1-yl)-methanone], the inhibition at 3 µM fell in the range of 40 to 75%.
Under `Cc1c(-c2ccc(Cl)cc2)c(C(=O)N2CCOC(C)(C)C2)n(Cc2ccccc2)c1C(F)(F)F` [SC-40, [1-Benzyl-3-(4-chlorophenyl)-4-methyl-5-(trifluoromethyl)-1H-pyrrol-2-yl]-(2,2-dimethyl-morpholin-4-yl)-methanone] stands over 95%; under `Cc1c(-c2ccc(Cl)cc2)c(C(=O)N(C)CCCS(C)(=O)=O)n(Cc2ccccc2)c1C(F)(F)F` [SC-127, 1-Benzyl-3-(4-chlorophenyl)-N,4-dimethyl-N-(3-methylsulfonyl-propyl)-5-(trifluoromethyl)-1H-pyrrole-2-carboxylic acid amide], over 95%.
Regarding `Cc1c(-c2ccc(Cl)cc2)c(C(=O)N(C)CC(C)(CO)CO)n(Cc2ccccc2)c1C(F)(F)F` [SC-125, 1-Benzyl-3-(4-chlorophenyl)-N-[3-hydroxy-2-(hydroxymethyl)-2-methyl-propyl]-N,4-dimethyl-5-(trifluoromethyl)-1H-pyrrole-2-carboxylic acid amide], the inhibition at 3 µM was over 95%.
Under `CN(CC(C)(CO)CO)C(=O)c1c(-c2ccc(Cl)cc2)cc(C(F)(F)F)n1Cc1ccccc1` [SC-183, 1-Benzyl-3-(4-chlorophenyl)-N-[3-hydroxy-2-(hydroxymethyl)-2-methyl-propyl]-N-methyl-5-(trifluoromethyl)-1H-pyrrole-2-carboxylic acid amide] stands over 95%; under `Cc1c(-c2ccc(Cl)cc2F)c(C(=O)N2CC(F)(F)C2)n(Cc2ccccc2)c1C(F)(F)F` [SC-100, [1-Benzyl-3-(4-chloro-2-fluoro-phenyl)-4-methyl-5-(trifluoromethyl)-1H-pyrrol-2-yl]-(3,3-difluoro-azetidin-1-yl)-methanone], 75 to 95%.
Turning to `Cc1c(-c2ccc(Cl)cc2)c(C(=O)N(C)CC2CCC[C@@H]2O)n(Cc2ccccc2)c1C(F)(F)F` (stereo partly drawn) [SC-135, 1-Benzyl-3-(4-chlorophenyl)-N-[[(2S)-2-hydroxy-cyclopentyl]-methyl]-N,4-dimethyl-5-(trifluoromethyl)-1H-pyrrole-2-carboxylic acid amide], the inhibition at 3 µM is over 95%.
In the case of `Cc1cc(CN(C)C(=O)c2c(-c3ccc(Cl)cc3)cc(C(F)(F)F)n2Cc2ccccc2)no1` [SC-205, 1-Benzyl-3-(4-chlorophenyl)-N-methyl-N-[(5-methyl-isoxazol-3-yl)-methyl]-5-(trifluoromethyl)-1H-pyrrole-2-carboxylic acid amide], the inhibition at 3 µM was over 95%.
Next, `Cc1c(-c2ccc(Cl)cc2)c(C(=O)N2CCOCC2)n(Cc2ccccc2)c1C(F)(F)F` [SC-03, [1-Benzyl-3-(4-chlorophenyl)-4-methyl-5-(trifluoromethyl)-1H-pyrrol-2-yl]-morpholin-4-yl-methanone]: over 95%; `Cc1c(-c2ccc(Cl)cc2)c(C(=O)N(C)C(C)(C)CCO)n(Cc2ccccc2)c1C(F)(F)F` [SC-122, 1-Benzyl-3-(4-chlorophenyl)-N-(3-hydroxy-1,1-dimethyl-propyl)-N,4-dimethyl-5-(trifluoromethyl)-1H-pyrrole-2-carboxylic acid amide]: over 95%; `CN(CC(C)(C)CN1CCOCC1)C(=O)c1c(-c2ccc(Cl)cc2)cc(C(F)(F)F)n1Cc1ccccc1` [SC-180, 1-Benzyl-3-(4-chlorophenyl)-N-(2,2-dimethyl-3-morpholin-4-yl-propyl)-N-methyl-5-(trifluoromethyl)-1H-pyrrole-2-carboxylic acid amide]: 75 to 95%.
Next, `Cc1c(-c2ccc(Cl)cc2)c(C(=O)NC(C)C)n(Cc2ccccc2)c1C(F)(F)F` [SC-150, 1-Benzyl-3-(4-chlorophenyl)-N-isopropyl-4-methyl-5-(trifluoromethyl)-1H-pyrrole-2-carboxylic acid amide]: 75 to 95%.
On to `O=C(c1c(-c2ccc(Cl)cc2)cc(C(F)(F)F)n1Cc1ccccc1)N1CC(O)C1` [SC-72, [1-Benzyl-3-(4-chlorophenyl)-5-(trifluoromethyl)-1H-pyrrol-2-yl]-(3-hydroxy-azetidin-1-yl)-methanone], for which the inhibition at 3 µM was 75 to 95%.
Under `CN(CCS(C)(=O)=O)C(=O)c1c(-c2ccc(Cl)cc2)cc(C(F)(F)F)n1Cc1ccccc1` [SC-67, 1-Benzyl-3-(4-chlorophenyl)-N-methyl-N-(2-methylsulfonyl-ethyl)-5-(trifluoromethyl)-1H-pyrrole-2-carboxylic acid amide] stands over 95%; under `Cc1c(-c2ccc(Cl)cc2)c(C(=O)N2CCC(CO)C2)n(Cc2ccccc2)c1C(F)(F)F` (stereo not shown) [SC-117, [1-Benzyl-3-(4-chlorophenyl)-4-methyl-5-(trifluoromethyl)-1H-pyrrol-2-yl]-[3-(hydroxymethyl)-pyrrolidin-1-yl]-methanone], 75 to 95%.
Next, `Cc1c(-c2ccc(Cl)c(F)c2)c(C(=O)N(C)C2CCOCC2)n(Cc2ccccc2)c1C(F)(F)F` [SC-245, 1-Benzyl-3-(4-chloro-3-fluoro-phenyl)-N,4-dimethyl-N-tetrahydro-pyran-4-yl-5-(trifluoromethyl)-1H-pyrrole-2-carboxylic acid amide]: over 95%; `O=C(c1c(-c2ccc(Cl)cc2F)cc(C(F)(F)F)n1Cc1ccccc1)N1CCOCC1` [SC-86, [1-Benzyl-3-(4-chloro-2-fluoro-phenyl)-5-(trifluoromethyl)-1H-pyrrol-2-yl]-morpholin-4-yl-methanone]: over 95%; `CN(CC1(CO)CC1)C(=O)c1c(-c2ccc(Cl)cc2)cc(C(F)(F)F)n1Cc1ccccc1` [SC-178, 1-Benzyl-3-(4-chlorophenyl)-N-[[1-(hydroxymethyl)-cyclopropyl]-methyl]-N-methyl-5-(trifluoromethyl)-1H-pyrrole-2-carboxylic acid amide]: over 95%.
Under `O=C(c1c(-c2ccc(Cl)cc2)cc(C(F)(F)F)n1Cc1ccccc1)N1CC(F)(F)C1` [SC-94, [1-Benzyl-3-(4-chlorophenyl)-5-(trifluoromethyl)-1H-pyrrol-2-yl]-(3,3-difluoro-azetidin-1-yl)-methanone] stands 75 to 95%; under `Cc1c(-c2ccc(C(F)(F)F)cc2)c(C(=O)N(C)C(C)(C)CO)n(Cc2ccccc2)c1C(F)(F)F` [SC-231, 1-Benzyl-N-(2-hydroxy-1,1-dimethyl-ethyl)-N,4-dimethyl-5-(trifluoromethyl)-3-[4-(trifluoromethyl)-phenyl]-1H-pyrrole-2-carboxylic acid amide], over 95%; under `Cc1c(-c2ccc(Cl)cc2)c(C(=O)N2CCNC(=O)C2)n(Cc2cccc(Cl)c2)c1C(F)(F)F` [SC-55, 4-[3-(4-Chlorophenyl)-1-[(3-chlorophenyl)-methyl]-4-methyl-5-(trifluoromethyl)-1H-pyrrole-2-carbonyl]-piperazin-2-one], over 95%.
For the molecule `Cc1c(-c2ccc(Cl)cc2F)c(C(=O)N(C)CCC2CCCO2)n(Cc2ccccc2)c1C(F)(F)F` (stereo not shown) [SC-164, 1-Benzyl-3-(4-chloro-2-fluoro-phenyl)-N,4-dimethyl-N-(2-tetrahydro-furan-2-yl-ethyl)-5-(trifluoromethyl)-1H-pyrrole-2-carboxylic acid amide], the inhibition at 3 µM was over 95%.

The record behind these values is US9302988B2, “Fluoromethyl-substituted pyrrole carboxamides” (GRÜNENTHAL GMBH, priority 2012, dated 2016).
